Data reported in patent US4933104A, “Anthraquinone derivative as a dichroic dye for a liquid-crystal material, liquid-crystal material and an electrooptical device” (priority 1986, dated 1990).
Where “and” joins values, the source holds several entries; their conditions need not be identical. Equal entries are not always repeated.

Assays:
Assay type in all cases: physicochemical
[1] = λmax of the long-wave absorption band of the dye; details: Table 1 / Examples; several values = several maxima
Description: (§1) Table 1 given below lists the values of negative dichroism of the anthraquinone derivative of general formula /1/ for examples 1-30 in a liquid-crystalline mixture ZK-807; Table 2 illustrates physico-chemical characteristics, and Table 3--limiting solubility in liquid-crystalline mixtures (ZK-807, ZLI-1840, 3010, SP-586, ZK-1282) at 20° C.

[2] = negative dichroism S in a liquid-crystalline mixture; details: liquid-crystalline mixture ZK-807
Description: as §1

[3] = limiting solubility in liquid-crystalline mixtures at 20° C.; details: for solubility exceeds the solubility of the known analogue: ratio to known derivative, No. 2, 7 and 6 of Table 3 vs No. 1, 5 and 6 of Table 6

Structure (SMILES) | λmax [1] | negative dichroism S [2] | Solubility (limiting) ([3]; 3010, 20° C.) [mass %] | Solubility (limiting) ([3]; SP-586, 20° C.) [mass %] | Solubility (limiting) ([3]; ZK-807, 20° C.) [mass %] | Solubility (limiting) ([3]; ZK-1282, 20° C.) [mass %] | solubility exceeds the solubility of the known analogue [3] [times] | Solubility (limiting) ([3]; ZLI-1840, 20° C.) [mass %]
CCCCc1ccc(C(=O)Nc2cc(CCCC)c(OC(=O)c3ccc(CCCC)cc3)c3c2C(=O)c2c(NC(=O)c4ccc(CCCC)cc4)cc(CCCC)c(OC(=O)c4ccc(CCCC)cc4)c2C3=O)cc1 [Compound 6, 1,8-Bis-(4-butylbenzamido)-4,5-bis-(4.butylbenzoyloxy)-3,6-dibutylanthraquinone] | 468 nm | -0.33 | 4.6 | 4.0 | 9.0 | 4.0 | 18 | 
CCCCc1cc(NC(=O)c2ccc(C3CCC(CCCC)CC3)cc2)c2c(c1O)C(=O)c1c(OC(=O)CCC)c(CCCC)cc(NC(=O)c3ccc(C4CCC(CCCC)CC4)cc3)c1C2=O (centres unmarked) [Compound 23] | 542 nm | -0.36 | 2.0 |  | 1.7 |  |  | 2.6
CCCCCc1cc(NC(=O)c2ccc(CCCC)cc2)c2c(c1O)C(=O)c1c(OC(=O)c3ccc(CCCC)cc3)c(CCCCC)cc(NC(=O)c3ccc(CCCC)cc3)c1C2=O [Compound 25] | 540 nm | -0.30 | 0.9 |  | 3.0 |  |  | 1.0
CCCCCCc1ccc(C(=O)Nc2cc(CCCC)c(OC(=O)c3ccc(CCCCCC)cc3)c3c2C(=O)c2c(NC(=O)c4ccc(CCCCCC)cc4)cc(CCCC)c(OC(=O)c4ccc(CCCCCC)cc4)c2C3=O)cc1 [Compound 7] | 434 nm and 455 nm | -0.26 |  |  | 5.0 |  | 10 | 
CCCCc1ccc(C(=O)Nc2cc(CCCC)c(O)c3c2C(=O)c2c(NC(=O)c4ccc(CCCC)cc4)cc(CCCC)c(OC(=O)c4ccc(CCCC)cc4)c2C3=O)cc1 [Compound 18, 1,8-bis-(4-butylbenzamido)-4-(4-butylbenzoyloxy)-3,6-dibutyl-5-oxyanthraquinone] | 534 nm | -0.31 | 0.7 |  | 2.7 |  |  | 
CCCCCCC1CCC(C(=O)Nc2ccc(OC(=O)C3CCC(CCCCCC)CC3)c3c2C(=O)c2c(NC(=O)C4CCC(CCCCCC)CC4)cc(C)c(OC(=O)C4CCC(CCCCCC)CC4)c2C3=O)CC1 (centres unmarked) [Compound 5] | 461 nm | -0.37 | 1.0 |  | 3.0 |  |  | 
CCCCc1cc(NC(=O)C2CCC(CCCC)CC2)c2c(c1OC(=O)c1ccc(C3CCC(CCCC)CC3)cc1)C(=O)c1c(OC(=O)c3ccc(C4CCC(CCCC)CC4)cc3)c(CCCC)cc(NC(=O)C3CCC(CCCC)CC3)c1C2=O (centres unmarked) [Compound 10] | 466 nm | -0.35 | 9.0 | 7.5 | 10.8 |  |  | 7.2
CCCCCC1CCC(c2ccc(C(=O)Nc3cc(CCCC)c(O)c4c3C(=O)c3c(OC(=O)c5ccc(C6CCC(CCCCC)CC6)cc5)c(CCCC)cc(NC(=O)c5ccc(C6CCC(CCCCC)CC6)cc5)c3C4=O)cc2)CC1 (centres unmarked) [Compound 24] | 563 nm and 617 nm | -0.33 | 6.0 |  | 6.0 |  |  | 5.5
CCCCCC1CCC(c2ccc(C(=O)Nc3ccc(OC(=O)c4ccc(C5CCC(CCCCC)CC5)cc4)c4c3C(=O)c3c(NC(=O)c5ccc(C6CCC(CCCCC)CC6)cc5)cc(C)c(OC(=O)c5ccc(C6CCC(CCCCC)CC6)cc5)c3C4=O)cc2)CC1 (centres unmarked) [Compound 4] | 468 nm | -0.36 | 3.0 | 1.9 | 1.0 |  |  | 1.5
CCCCCC1CCC(c2ccc(C(=O)Nc3cc(CCCC)c(OC(=O)C4CCC(CCCC)CC4)c4c3C(=O)c3c(NC(=O)c5ccc(C6CCC(CCCCC)CC6)cc5)cc(CCCC)c(OC(=O)C5CCC(CCCC)CC5)c3C4=O)cc2)CC1 (centres unmarked) [Compound 9] | 475 nm | -0.38 | 9.0 |  | 9.0 |  |  | 7.7
CCCCCC1CCC(c2ccc(C(=O)Nc3cc(CCCC)c(O)c4c3C(=O)c3c(NC(=O)c5ccc(C6CCC(CCCCC)CC6)cc5)cc(CCCC)c(OC(=O)c5ccc(C6CCC(CCCCC)CC6)cc5)c3C4=O)cc2)CC1 (centres unmarked) [Compound 19] | 540 nm | -0.38 | 4.8 | 2.9 |  |  |  | 2.5
